Test results: US5618726A, “Biodegradable azo dyes” (priority 1994, dated 1997)

Key:
[1] = target: T1, horseradish peroxidase type II (Armoracia rusticana, UniProt P00433); test: Oxidation of azo dyes by horseradish peroxidase preparation; format: biochemical; settings: pH 8, 37° C., H2O2
T1 sequence (P00433 31-338): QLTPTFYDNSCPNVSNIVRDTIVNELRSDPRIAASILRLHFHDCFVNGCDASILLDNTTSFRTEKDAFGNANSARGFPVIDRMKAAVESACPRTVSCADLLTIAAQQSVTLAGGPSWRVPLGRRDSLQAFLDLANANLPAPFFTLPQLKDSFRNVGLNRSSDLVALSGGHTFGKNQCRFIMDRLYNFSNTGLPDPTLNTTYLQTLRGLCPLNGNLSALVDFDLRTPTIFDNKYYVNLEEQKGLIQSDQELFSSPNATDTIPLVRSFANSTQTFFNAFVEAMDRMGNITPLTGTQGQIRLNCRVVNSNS
Method: The reaction was started with the addition of 100 μl of 50 mM H2 O2 and was followed for 1 min at 37° C. Controls were run with no addition of H2 O2 or with the addition of the hemeperoxidase inhibitor KCN (final concentration 25 μM).

[2] = test system: S. chromofuscus A11 extracellular peroxidase; test: Oxidation of azo dyes by S. chromofuscus A11 crude enzyme preparation; format: biochemical, Streptomyces chromofuscus A11; settings: pH 8, 37° C., H2O2
Method: Environ. Microbiol., 1988, 54:3057-3063. […] Microbiol. Biotechnol., 34:661-667. Incubation took place at 37° C. with shaking at 250 rpm. The culture supernatant was collected after 48 h incubation, and vacuum-filtered through Whatman no. 1 filter paper. The filtrate was concentrated approximately 40- to 50-fold by ultrafiltration through an Amicon ultrafiltration stirred cell (series no. 8000, Amicon Corp.) with a disc PM-10 filter (diameter, 76 mm). Protein in the concentrated filtrate was then precipitated from solution with 80% ammonium sulfate. The precipitate was collected by centrifugation (15 min, 10,000 rpm). The pellet was resuspended in 10 ml of 20 mM HEPES buffer (pH 8) and dialyzed overnight against the same buffer at 4° C. These preparations were then stored in 1-ml aliquots at -20° C. until used. Before using, the preparation was filtered through a NAP-25 Sephadex G-25 disposable column (Pharmacia) in order to separate a yellowish protein fraction from a pink low-molecular-weight fraction. The yellowish fraction was used as the source of enzyme. […] The reaction was started with the addition of 100 μl of 50 mM H2 O2 and was followed for 1 min at 37° C. Controls were run with no addition of H2 O2 or with the addition of the hemeperoxidase inhibitor KCN (final concentration 25 μM).

Mn(II)-peroxidase = test: Oxidation of dyes by P. chrysosporium Mn(II)-peroxidase; format: biochemical, Phanerochaete chrysosporium; settings: crude enzyme, conditions specific for Mn(II)-peroxidase
Method: (§1) The peroxidase assay was carried out using a composition having a final volume of 1.0 ml. The reaction mixture contained 250 μl of 100 mM HEPES buffer (pH 8), 500 μl of 10 mM 2,4-dichlorophenol, 100 μl of 1 mM aminoantipyrine, 50 μl enzyme preparation and 100 μl 50 mM H2 O2. The reaction was initiated by the addition of hydrogen peroxide at 37° C. One unit of peroxidase activity was expressed as the amount of enzyme required for an increase of one absorbance-unit-per-minute at 510 nm. Assays of manganese peroxidase and of ligninase from P. chrysosporium were carried out as previously described by Paszczynski et al in "Manganese peroxidase of Phanerochaete chrysosporium: Purification," Methods Enzymol. 161:264-270, incorporated herein by reference. […] Biophys., 1986, 44:750-765. Preparation and assay of ligninase and manganese peroxidase from these P. chrysosporium cultures were carried out as previously reported by Paszczynski, et al., Methods Enzymol., 1988, 161:264-270. […] Purification," Methods Enzymol. 161:264-270. […] Cycle time was 10 seconds, with the last measure after three minutes of incubation.

ligninase = test: Oxidation of dyes by P. chrysosporium ligninase (crude preparation); format: biochemical, Phanerochaete chrysosporium; settings: crude enzyme, conditions specific for ligninase
Method: as §1, with “30 seconds” for “10 seconds,”, “15 minutes. […] The reaction conditions were the same as for acid yellow 9. No decolorization” for “three minutes”, “the synthesized dyes by ligninase was detected.” for “incubation.”

[3] = test system: Phanerochaete chrysosporium; test: Substrate removal / decolorization by P. chrysosporium culture; format: cell-based; settings: for % Decolorization, P. chrysosporium: 14 days
Method: Environ. Microbiol., 1981, 42:290-296), with the addition of 75 mg adenine (6-aminopurine) and 27 mg L-phenylalanine-per-liter. This addition accelerated the growth of the fungus without inhibiting ligninase activity. […] […] Cultures were incubated at 37° C. for 7 to 15 days with shaking (250 rpm). Solid agar media were also employed.

[4] = beginning concentration 100 ppm
[5] = beginning concentration 150 ppm
[6] = beginning concentration 200 ppm
[7] = beginning concentration 300 ppm

| Compound | Oxidation rate of azo dyes, Horseradish peroxidase [1] | Oxidation rate of azo dyes, S. chromofuscus peroxidase [2] | Oxidation rate of azo dyes, P. chrysosporium Mn-peroxidase (Mn(II)-peroxidase) | Oxidation rate of azo dyes, P. chrysosporium Ligninase (ligninase) | % Decolorization, P. chrysosporium ([3]; initial concn 150 ppm) | % Decolorization, P. chrysosporium ([3]; initial concn 300 ppm) | Concentration of substrate after ten days cultivation with P. chrysosporium [3, 4] | Concentration of substrate after ten days cultivation with P. chrysosporium [3, 5] | Concentration of substrate after ten days cultivation with P. chrysosporium [3, 6] | Concentration of substrate after ten days cultivation with P. chrysosporium [3, 7] |
| --- | --- | --- | --- | --- | --- | --- | --- | --- | --- | --- |
| O=S(=O)(O)c1ccc(N=Nc2cc(F)c(O)c(F)c2)cc1 [compound 12] | 0.17 μmoles per minute per ml | 0.15 μmoles per minute per ml | 0.00 μmoles per minute per ml | 11.61 μmoles per minute per ml | 86% | 93% | 2.368 ppm | 44.227 ppm | 6.160 ppm | 198.240 ppm |
| Nc1ccc(N=Nc2ccc(S(=O)(=O)O)cc2)cc1 [compound 30] | 0.40 μmoles per minute per ml | 0.00 μmoles per minute per ml | 0.59 μmoles per minute per ml | 1.58 μmoles per minute per ml | 85% | 80% |  |  |  |  |
| O=S(=O)(O)c1ccc2c(N=Nc3ccccc3)c(O)ccc2c1 [compound 19] | 0.08 μmoles per minute per ml | 0.35 μmoles per minute per ml | 0.10 μmoles per minute per ml | 2.06 μmoles per minute per ml | 93% | 87% |  | 2.938 ppm |  | 252.592 ppm |
| Nc1ccc(N=Nc2ccc(S(=O)(=O)O)cc2)cc1S(=O)(=O)O [compound 18] | 0.12 μmoles per minute per ml | 0.15 μmoles per minute per ml | 0.09 μmoles per minute per ml | 1.38 μmoles per minute per ml |  |  | 8.387 ppm | 20.342 ppm | 40.875 ppm | 77.099 ppm |
| COc1ccc(N=Nc2ccc(S(=O)(=O)O)cc2)cc1OC [compound 17] | 0.32 μmoles per minute per ml | 0.50 μmoles per minute per ml | 0.72 μmoles per minute per ml | 1.03 μmoles per minute per ml | 79% | 74% | 29.803 ppm | 58.942 ppm | 93.250 ppm | 136.057 ppm |

More lines, main results first:

| Oxidation rate of azo dyes, Horseradish peroxidase [1] | Oxidation rate of azo dyes, S. chromofuscus peroxidase [2] | Oxidation rate of azo dyes, P. chrysosporium Mn-peroxidase (Mn(II)-peroxidase) | Oxidation rate of azo dyes, P. chrysosporium Ligninase (ligninase) | % Decolorization, P. chrysosporium ([3]; initial concn 150 ppm) | % Decolorization, P. chrysosporium ([3]; initial concn 300 ppm) | Compound | Concentration of substrate after ten days cultivation with P. chrysosporium [3, 4] | Concentration of substrate after ten days cultivation with P. chrysosporium [3, 5] | Concentration of substrate after ten days cultivation with P. chrysosporium [3, 6] | Concentration of substrate after ten days cultivation with P. chrysosporium [3, 7] |
| --- | --- | --- | --- | --- | --- | --- | --- | --- | --- | --- |
| 0.20 μmoles per minute per ml | 0.35 μmoles per minute per ml | 0.07 μmoles per minute per ml | 1.27 μmoles per minute per ml | 89% | 86% | CCc1ccc(O)c(N=Nc2ccc(S(=O)(=O)O)cc2)c1 [compound 9] | 81.911 ppm | 109.822 ppm | 32.044 ppm | 153.733 ppm |
| 0.34 μmoles per minute per ml | 0.19 μmoles per minute per ml | 0.11 μmoles per minute per ml | 1.35 μmoles per minute per ml | 81% | 55% | Cc1cc(O)c(N=Nc2ccc(S(=O)(=O)O)cc2)cc1C [compound 7] | 62.893 ppm | 41.044 ppm | 10.200 ppm | 246.044 ppm |
| 0.52 μmoles per minute per ml | 0.09 μmoles per minute per ml | 0.47 μmoles per minute per ml | 1.18 μmoles per minute per ml |  |  | O=S(=O)(O)c1ccc(N=Nc2c(O)ccc3ccccc23)cc1 [compound 31] |  |  |  |  |
| 0.47 μmoles per minute per ml | 0.42 μmoles per minute per ml | 0.02 μmoles per minute per ml | 0.45 μmoles per minute per ml | 72% | 18% | O=S(=O)(O)c1ccc(N=Nc2ccc(O)cc2)cc1 [compound 6] | 12.909 ppm | 14.003 ppm | 33.309 ppm | 39.326 ppm |
| 0.07 μmoles per minute per ml | 0.14 μmoles per minute per ml | 0.32 μmoles per minute per ml | 0.49 μmoles per minute per ml | 27% | 49% | Cc1ccc(O)c(N=Nc2ccc(S(=O)(=O)O)cc2)c1 [compound 8] | 16.079 ppm | 28.401 ppm | 29.704 ppm | 135.680 ppm |
